# Data from patent publication US20180110754A1, “CENICRIVIROC FOR THE TREATMENT OF FIBROSIS” (Tobira Therapeutics, Inc., priority 2015, published 2018).
# Assays:
# HIV-1 = experiment: Study 202 Phase 2b: virologic response (HIV-1 RNA <50 copies/mL, FDA Snapshot); format: in vivo, human
# Excerpt: Subjects with a history of HIV-2, hepatitis B and/or C, cirrhosis of the liver or any known active or chronic active liver disease were excluded from the study.
# The primary efficacy endpoint was virologic response at Week 24, defined as HIV-1 RNA<50 copies/mL using the FDA Snapshot Algorithm.
# [1] = Study 202: treatment-emergent laboratory abnormalities (DAIDS grades; CPK, ALT, AST, bilirubin); format: in vivo; details: for ALT, worst Grade 1, n subjects / ALT, worst Grade 2, n subjects / ALT, worst Grade 3, n subjects / ALT, worst Grade 4, n subjects / AST, worst Grade 1, n subjects / AST, worst Grade 2, n subjects / AST, worst Grade 3, n subjects / AST, worst Grade 4, n subjects / Alanine aminotransferase (ALT) abnormality, any grade, n subjects / Any Grade 3 or Grade 4 laboratory abnormality, n subjects / Aspartate aminotransferase (AST) abnormality, any grade, n subjects / Aspartate aminotransferase (AST) increased (Grade 3 or 4), n subjects / Bilirubin abnormality, any grade, n subjects / Bilirubin, worst Grade 1, n subjects / Bilirubin, worst Grade 2, n subjects / Bilirubin, worst Grade 3, n subjects / Bilirubin, worst Grade 4, n subjects / CPK increased, worst Grade 3, n subjects / CPK increased, worst Grade 4, n subjects / Creatine phosphokinase (CPK) increased (Grade 3 or 4), n subjects / Fibrinogen decreased (Grade 3 or 4), n subjects / Fibrinogen decreased, worst Grade 3, n subjects / Fibrinogen decreased, worst Grade 4, n subjects / Hemoglobin decreased (Grade 3 or 4), n subjects / Hemoglobin decreased, worst Grade 3, n subjects / Hemoglobin decreased, worst Grade 4, n subjects / Neutrophils decreased (Grade 3 or 4), n subjects / Neutrophils decreased, worst Grade 3, n subjects / Neutrophils decreased, worst Grade 4, n subjects / Phosphate decreased (Grade 3 or 4), n subjects / Phosphate decreased, worst Grade 3, n subjects / Phosphate decreased, worst Grade 4, n subjects / Prothrombin time/INR increased, worst Grade 3, n subjects / Prothrombin time/INR increased, worst Grade 4, n subjects: through Week 48
# Excerpt: The number of subjects with graded treatment-emergent laboratory abnormalities in selected liver parameters of interest is shown in Table 34. No Grade 4 ALT or AST elevations were observed. Except for one Grade 3 AST elevation, all ALT and AST elevations were Grade 1 or Grade 2. […] All abnormalities in bilirubin were Grade 1 or Grade 2. […]
# [2] = All CVC (N = 115), EFV (N = 28)
compound,measurement,setting,value
"CCCCOCCOc1ccc(-c2ccc3c(c2)/C=C(/C(=O)Nc2ccc([S@@+]([O-])Cc4cncn4CCC)cc2)CCCN3CC(C)C)cc1 [CVC, (S)-8-[4-(2-Butoxyethoxy)phenyl]-1-isobutyl-N-(4-{[(1-propyl-1H-imidazol-5-yl)methyl]sulfinyl}phenyl)-1,2,3,4-tetrahydro-1-benzazocine-5-carboxamide]",Virologic success (HIV-1 RNA <50 copies/mL),"HIV-1; CVC 100 mg + FTC/TDF, Week 24",76%
same,Virologic success (HIV-1 RNA <50 copies/mL),"HIV-1; CVC 100 mg + FTC/TDF, Week 48",68%
same,Virologic success (HIV-1 RNA <50 copies/mL),"HIV-1; CVC 200 mg + FTC/TDF, Week 24",73%
same,Virologic success (HIV-1 RNA <50 copies/mL),"HIV-1; CVC 200 mg + FTC/TDF, Week 48",64%
same,"Any graded (Grade 1-4) treatment-emergent laboratory abnormality, n subjects",[1]; [2],106
same,"Laboratory abnormality, worst Grade 1, n subjects",[1]; [2],37
same,"Laboratory abnormality, worst Grade 2, n subjects",[1]; [2],50
same,"Laboratory abnormality, worst Grade 3 (Any Grade 3 abnormality), n subjects",[1]; [2],13
same,"Laboratory abnormality, worst Grade 4 (Any Grade 4 abnormality), n subjects",[1]; [2],6
same,"ALT, worst Grade 1, n subjects",[1]; [2],10
same,"ALT, worst Grade 2, n subjects",[1]; [2],5
same,"ALT, worst Grade 3, n subjects",[1]; [2],0
same,"ALT, worst Grade 4, n subjects",[1]; [2],0
same,"AST, worst Grade 1, n subjects",[1]; [2],14
same,"AST, worst Grade 2, n subjects",[1]; [2],6
same,"AST, worst Grade 3, n subjects",[1]; [2],1
same,"AST, worst Grade 4, n subjects",[1]; [2],0
same,"Alanine aminotransferase (ALT) abnormality, any grade, n subjects",[1]; [2],15
same,"Any Grade 3 or Grade 4 laboratory abnormality, n subjects",[1]; [2],19
same,"Aspartate aminotransferase (AST) abnormality, any grade, n subjects",[1]; [2],21
same,"Aspartate aminotransferase (AST) increased (Grade 3 or 4), n subjects",[1]; [2],1
same,"Bilirubin abnormality, any grade, n subjects",[1]; [2],7
same,"Bilirubin, worst Grade 1, n subjects",[1]; [2],3
same,"Bilirubin, worst Grade 2, n subjects",[1]; [2],4
same,"Bilirubin, worst Grade 3, n subjects",[1]; [2],0
same,"Bilirubin, worst Grade 4, n subjects",[1]; [2],0
same,"CPK increased, worst Grade 3, n subjects",[1]; [2],8
same,"CPK increased, worst Grade 4, n subjects",[1]; [2],4
same,"Creatine phosphokinase (CPK) increased (Grade 3 or 4), n subjects",[1]; [2],12
same,"Fibrinogen decreased (Grade 3 or 4), n subjects",[1]; [2],2
same,"Fibrinogen decreased, worst Grade 3, n subjects",[1]; [2],2
same,"Fibrinogen decreased, worst Grade 4, n subjects",[1]; [2],0
same,"Hemoglobin decreased (Grade 3 or 4), n subjects",[1]; [2],1
same,"Hemoglobin decreased, worst Grade 3, n subjects",[1]; [2],0
same,"Hemoglobin decreased, worst Grade 4, n subjects",[1]; [2],1
same,"Neutrophils decreased (Grade 3 or 4), n subjects",[1]; [2],2
same,"Neutrophils decreased, worst Grade 3, n subjects",[1]; [2],2
same,"Neutrophils decreased, worst Grade 4, n subjects",[1]; [2],0
same,"Phosphate decreased (Grade 3 or 4), n subjects",[1]; [2],4
same,"Phosphate decreased, worst Grade 3, n subjects",[1]; [2],4
same,"Phosphate decreased, worst Grade 4, n subjects",[1]; [2],0
same,"Prothrombin time/INR increased, worst Grade 3, n subjects",[1]; [2],0
same,"Prothrombin time/INR increased, worst Grade 4, n subjects",[1]; [2],1
same,Subjects with Grade 3 or 4 increases in CPK,[1]; CVC 100 mg,3 subjects
same,"Any graded (Grade 1-4) treatment-emergent laboratory abnormality, n subjects",[1]; CVC 100 mg (N = 58),51 (88%)
same,"Laboratory abnormality, worst Grade 1, n subjects",[1]; CVC 100 mg (N = 58),21 (36%)
same,"Laboratory abnormality, worst Grade 2, n subjects",[1]; CVC 100 mg (N = 58),23 (40%)
same,"ALT, worst Grade 1, n subjects",[1]; CVC 100 mg (N = 58),4
same,"ALT, worst Grade 2, n subjects",[1]; CVC 100 mg (N = 58),3
same,"ALT, worst Grade 3, n subjects",[1]; CVC 100 mg (N = 58),0
same,"ALT, worst Grade 4, n subjects",[1]; CVC 100 mg (N = 58),0
same,"AST, worst Grade 1, n subjects",[1]; CVC 100 mg (N = 58),8
same,"AST, worst Grade 2, n subjects",[1]; CVC 100 mg (N = 58),2
same,"AST, worst Grade 3, n subjects",[1]; CVC 100 mg (N = 58),1
same,"AST, worst Grade 4, n subjects",[1]; CVC 100 mg (N = 58),0
same,"Alanine aminotransferase (ALT) abnormality, any grade, n subjects",[1]; CVC 100 mg (N = 58),7
same,"Any Grade 3 or Grade 4 laboratory abnormality, n subjects",[1]; CVC 100 mg (N = 58),7
same,"Aspartate aminotransferase (AST) abnormality, any grade, n subjects",[1]; CVC 100 mg (N = 58),11
same,"Aspartate aminotransferase (AST) increased (Grade 3 or 4), n subjects",[1]; CVC 100 mg (N = 58),1
same,"Bilirubin abnormality, any grade, n subjects",[1]; CVC 100 mg (N = 58),4
same,"Bilirubin, worst Grade 1, n subjects",[1]; CVC 100 mg (N = 58),1
same,"Bilirubin, worst Grade 2, n subjects",[1]; CVC 100 mg (N = 58),3
same,"Bilirubin, worst Grade 3, n subjects",[1]; CVC 100 mg (N = 58),0
same,"Bilirubin, worst Grade 4, n subjects",[1]; CVC 100 mg (N = 58),0
same,"CPK increased, worst Grade 3, n subjects",[1]; CVC 100 mg (N = 58),2
same,"CPK increased, worst Grade 4, n subjects",[1]; CVC 100 mg (N = 58),1
same,"Creatine phosphokinase (CPK) increased (Grade 3 or 4), n subjects",[1]; CVC 100 mg (N = 58),3
same,"Fibrinogen decreased (Grade 3 or 4), n subjects",[1]; CVC 100 mg (N = 58),0
same,"Fibrinogen decreased, worst Grade 3, n subjects",[1]; CVC 100 mg (N = 58),0
same,"Fibrinogen decreased, worst Grade 4, n subjects",[1]; CVC 100 mg (N = 58),0
same,"Hemoglobin decreased (Grade 3 or 4), n subjects",[1]; CVC 100 mg (N = 58),1
same,"Hemoglobin decreased, worst Grade 3, n subjects",[1]; CVC 100 mg (N = 58),0
same,"Hemoglobin decreased, worst Grade 4, n subjects",[1]; CVC 100 mg (N = 58),1
same,"Neutrophils decreased (Grade 3 or 4), n subjects",[1]; CVC 100 mg (N = 58),2
same,"Neutrophils decreased, worst Grade 3, n subjects",[1]; CVC 100 mg (N = 58),2
same,"Neutrophils decreased, worst Grade 4, n subjects",[1]; CVC 100 mg (N = 58),0
same,"Phosphate decreased (Grade 3 or 4), n subjects",[1]; CVC 100 mg (N = 58),2
same,"Phosphate decreased, worst Grade 3, n subjects",[1]; CVC 100 mg (N = 58),2
same,"Phosphate decreased, worst Grade 4, n subjects",[1]; CVC 100 mg (N = 58),0
same,"Prothrombin time/INR increased, worst Grade 3, n subjects",[1]; CVC 100 mg (N = 58),0
same,"Prothrombin time/INR increased, worst Grade 4, n subjects",[1]; CVC 100 mg (N = 58),1
same,Subjects with Grade 3 or 4 increases in CPK,[1]; CVC 200 mg,9 subjects
same,"Any graded (Grade 1-4) treatment-emergent laboratory abnormality, n subjects",[1]; CVC 200 mg (N = 57),55
same,"Laboratory abnormality, worst Grade 1, n subjects",[1]; CVC 200 mg (N = 57),16
same,"Laboratory abnormality, worst Grade 2, n subjects",[1]; CVC 200 mg (N = 57),27
same,"Laboratory abnormality, worst Grade 3 (Any Grade 3 abnormality), n subjects",[1]; CVC 200 mg (N = 57),9
same,"Laboratory abnormality, worst Grade 4 (Any Grade 4 abnormality), n subjects",[1]; CVC 200 mg (N = 57),3
same,"ALT, worst Grade 1, n subjects",[1]; CVC 200 mg (N = 57),6
same,"ALT, worst Grade 2, n subjects",[1]; CVC 200 mg (N = 57),2
same,"ALT, worst Grade 3, n subjects",[1]; CVC 200 mg (N = 57),0
same,"ALT, worst Grade 4, n subjects",[1]; CVC 200 mg (N = 57),0
same,"AST, worst Grade 1, n subjects",[1]; CVC 200 mg (N = 57),6
same,"AST, worst Grade 2, n subjects",[1]; CVC 200 mg (N = 57),4
same,"AST, worst Grade 3, n subjects",[1]; CVC 200 mg (N = 57),0
same,"AST, worst Grade 4, n subjects",[1]; CVC 200 mg (N = 57),0
same,"Alanine aminotransferase (ALT) abnormality, any grade, n subjects",[1]; CVC 200 mg (N = 57),8
same,"Any Grade 3 or Grade 4 laboratory abnormality, n subjects",[1]; CVC 200 mg (N = 57),12
same,"Aspartate aminotransferase (AST) abnormality, any grade, n subjects",[1]; CVC 200 mg (N = 57),10
same,"Aspartate aminotransferase (AST) increased (Grade 3 or 4), n subjects",[1]; CVC 200 mg (N = 57),0
same,"Bilirubin abnormality, any grade, n subjects",[1]; CVC 200 mg (N = 57),3
